Publication PMC9147171, “Pharmacokinetic/Pharmacodynamic Evaluation of a New Purine-2,6-Dione Derivative in Rodents with Experimental Autoimmune Diseases” (Pharmaceutics, 2022)

Key:
[1] = biological target: T1, hrPDE1B (Homo sapiens, UniProt Q01064); experiment: PDE-Glo catalytic activity assay, PDE1B; format: biochemical
T1 construct: purchased SignalChem, Richmond, Canada
Protocol: The inhibitory activity of compound 34 against hrPDE1B and hrPDE3A (SignalChem, Richmond, Canada) was assessed using the PDE-Glo™ catalytic activity assay (Promega Corporation, Madison, WI, USA). It was performed on 384-well plates according to manufacturer’s instructions with slight modifications. Solutions of both PDEs were prepared by diluting their stock solutions in the PDE-Glo™ Reaction Buffer and aliquots of 6.5 μL were added to the wells. A stock solution of the tested compound was prepared in DMSO at a concentration of 10 mM and serially diluted with the same solvent. The obtained solutions were further diluted with PDE-Glo™ Reaction Buffer (1:5, v/v) and aliquots of 1 μL were transferred to the respective wells. Then, the mixture was incubated for 10 min at 30 °C on a heated plate shaker (Grant Instruments, Cambridge, United Kingdom). The reaction was started by the addition of 2.5 μL of a 0.2 μM cAMP solution to each well and the plate was incubated for 10 min at 30 °C on a heated plate shaker. Moreover, for each series, respective control reactions were performed: no-substrate, no-enzyme negative control reactions; no-enzyme positive control reactions containing substrate; and no-inhibitor positive control reactions containing both the substrate and PDE. After incubation, the reaction was stopped by adding 2.5 μL of the PDE-Glo™ Termination Buffer. A volume of 2.5 μL of the PDE-Glo™ Detection Buffer was transferred to each well and the plate was incubated for 20 min at room temperature. Finally, an aliquot of 10 μL of the PDE-Glo Kinase® Reagent was added to the wells. The plate was incubated for 10 min at room temperature and luminescence was measured with a luminometer (BMG Labtech, Ortenberg, Germany). For each inhibitor concentration, four independent measurements were performed. The resulting data were expressed as percent of an uninhibited control and plotted against the inhibitor concentration. The IC50 values were estimated by nonlinear regression using ADAPT5 software (BMSR, Los Angeles, CA, USA).

[2] = tested on: PDE4B; experiment: PDE inhibition assay, PDE4B (previous investigations); format: biochemical; conditions: ratio of IC50 values, vs GRMS-55
[3] = tested on: collagen-induced arthritis (CIA) in rats; experiment: Collagen-induced arthritis (CIA) in rats, PK/PD arthritis progression model; format: in vivo, female Lewis rats
Protocol: Female Lewis rats were subcutaneously injected at the base of the tail with the emulsion prepared according to the protocol supplied by Chondrex, Inc. (Redmond, WA, USA) at days 0 and 7 of the experiment. To obtain the emulsion, porcine collagen type II (Chondrex, Inc.) (2 mg/mL) in 0.05 M acetic acid was emulsified with incomplete Freund’s adjuvant (Sigma-Aldrich, St. Louis, MO, USA) using a homogenizer with a small blade (LabGen 125, Cole-Parmer, Vernon Hills, IL, USA). On day 20, the animals that developed symptoms of arthritis, i.e., paw swelling above 150% of day 0, were randomly divided into two groups: the control group receiving vehicle alone (n = 6) and the study group treated with the investigated compound at a dose of 20 mg·kg^−1, IP once daily for 21 days (n = 6). Relative paw edema of arthritic rats was measured using a digital caliper according to the procedure described by Earp et al. up to 40 days after the first immunization and then the animals were sacrificed. In addition, the body weight of animals was monitored. After randomization on day 20, using the Mann–Whitney U test, it was verified that there is no significant difference in paw size between the groups.
A previously developed PK/PD model of arthritis progression in rats was utilized in this study (Figure 2). The model was described in detail in our previous publication. Originally, this model was used to assess and compare the effects of a PDE4-selective inhibitor rolipram and two non-selective PDE inhibitors, namely GRMS-55 and lisofylline in CIA in female Lewis rats.
Briefly, the model assumes that PDE inhibitors act by suppressing the production of a precursor of arthritis progression. This is in line with the actual mechanism of anti-inflammatory action of PDE inhibitors that exert their effects by inhibiting the transcription of pro-inflammatory mediators, which participate in the arthritis development. […] Therefore, it was feasible to compare the potency of compound 34 and other PDE inhibitors that were evaluated in our previous study. […]

T1 sequence (Q01064 whole entry): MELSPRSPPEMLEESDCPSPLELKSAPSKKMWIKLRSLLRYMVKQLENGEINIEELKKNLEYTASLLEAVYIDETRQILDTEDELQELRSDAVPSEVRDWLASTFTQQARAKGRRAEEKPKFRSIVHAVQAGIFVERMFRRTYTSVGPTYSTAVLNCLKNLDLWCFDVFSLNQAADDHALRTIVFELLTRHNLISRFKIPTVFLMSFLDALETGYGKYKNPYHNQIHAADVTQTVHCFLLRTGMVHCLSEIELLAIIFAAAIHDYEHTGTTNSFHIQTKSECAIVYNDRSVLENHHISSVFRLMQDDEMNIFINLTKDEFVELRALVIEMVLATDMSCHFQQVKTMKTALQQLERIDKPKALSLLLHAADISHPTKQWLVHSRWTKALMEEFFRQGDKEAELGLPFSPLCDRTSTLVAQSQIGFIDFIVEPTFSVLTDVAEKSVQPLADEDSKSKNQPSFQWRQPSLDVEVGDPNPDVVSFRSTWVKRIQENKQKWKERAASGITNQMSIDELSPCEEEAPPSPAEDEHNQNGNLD

In the case of Cn1c(=O)c2c(nc(NCCc3ccccc3)n2CCCC(=O)NN=Cc2ccc(O)c(O)c2O)n(C)c1=O [Compound 34, 4-(1,3-dimethyl-2,6-dioxo-8-(phenethylamino)-2,3,6,7-tetrahydro-1H-purin-7-yl)-N′-(2,3,4-trihydroxybenzylidene)butanehydrazide], the IC50 ([1]; human recombinant PDE1B, CV% in brackets, read-out: IC50 (µM) Against PDE Isoform (CV%) PDE1B) is reported as 0.21 µM, the “times more potent than GRMS-55 in inhibiting PDE1B” value ([1]; ratio of IC50 values, vs GRMS-55) is reported as 12 times and the “inhibitory activity against PDE1B, times higher than that of vinpocetine” value ([1]; ratio of IC50 values, vs vinpocetine) is reported as “around 36 times”. For the same molecule, the “times more active as a PDE4B inhibitor compared to GRMS-55” value [2] was 19 times, the “Relative body weight, experimental vs control group” value ([3]; 20 mg·kg^−1 IP once daily for 21 days) was “not significantly different” and the “IC50_Paw in suppressing paw edema, times lower than that for rolipram” value ([3]; PK/PD model, rolipram value from ref 28) was 10 times. The “IC50_Paw, times lower than that for GRMS-55” value ([3]; same PK/PD model, GRMS-55 value from ref 28) was “around 260 times”.
